Data reported in BindingDB's records for doi:10.1016/0960-894X(96)00287-9 (1996).

Assay: Compound was tested for inhibition of [125I]eledoisin radioligand binding to NK3 receptor from gerbil cortex

For `Cc1cc(C)cc(C(=O)N2CC[C@H](NCc3cnc4ccccc4c3)C[C@H]2Cc2ccccc2)c1` [{(2R,4S)-2-Benzyl-4-[(quinolin-3-ylmethyl)-amino]-piperidin-1-yl}-(3,5-dimethyl-phenyl)-methanone], the IC50 was 10 µM.

Assay: Compound was tested for inhibition of NK1 receptor from gerbil midbrain; NT means not tested

Going from `CC(C)NC(=O)N[C@H]1CCN(C(=O)c2cc(C(F)(F)F)cc(C(F)(F)F)c2)[C@H](Cc2ccccc2)C1` [1-[(2R,4S)-2-Benzyl-1-(3,5-bis-trifluoromethyl-benzoyl)-piperidin-4-yl]-3-isopropyl-urea] to `NCC(=O)N[C@H]1CCN(C(=O)c2cc(C(F)(F)F)cc(C(F)(F)F)c2)[C@H](Cc2ccccc2)C1` [2-Amino-N-[(2R,4S)-2-benzyl-1-(3,5-bis-trifluoromethyl-benzoyl)-piperidin-4-yl]-acetamide], the IC50 rises from 0.02 µM to 0.062 µM (3.1-fold).

`O=C(Nc1ccccc1)N[C@H]1CCN(C(=O)c2cc(Cl)cc(Cl)c2)[C@H](Cc2ccccc2)C1` [1-[(2R,4S)-2-Benzyl-1-(3,5-dichloro-benzoyl)-piperidin-4-yl]-3-phenyl-urea] and `O=C(Cc1ccccc1)N[C@H]1CCN(C(=O)c2cc(Cl)cc(Cl)c2)[C@H](Cc2ccccc2)C1` [N-[(2R,4S)-2-Benzyl-1-(3,5-dichloro-benzoyl)-piperidin-4-yl]-2-phenyl-acetamide] are within 1.5-fold of each other in IC50: 0.072 µM for the first, 0.06 µM for the second.

First: O=C(Cc1ccccc1)N1CC[C@H](NCc2ccnc3ccccc23)C[C@H]1Cc1ccccc1 [1-{(2R,4S)-2-Benzyl-4-[(quinolin-4-ylmethyl)-amino]-piperidin-1-yl}-2-phenyl-ethanone]
Second: O=C(c1cccc2ccccc12)N1CC[C@H](NCc2ccnc3ccccc23)C[C@H]1Cc1ccccc1 [{(2R,4S)-2-Benzyl-4-[(quinolin-4-ylmethyl)-amino]-piperidin-1-yl}-naphthalen-1-yl-methanone]
The IC50 of the first is 30-fold higher: 3.3 µM for the first, 0.11 µM for the second.

`NC(=O)CN[C@H]1CCN(C(=O)c2cc(C(F)(F)F)cc(C(F)(F)F)c2)[C@H](Cc2ccccc2)C1` [2-[(2R,4S)-2-Benzyl-1-(3,5-bis-trifluoromethyl-benzoyl)-piperidin-4-ylamino]-acetamide] and `CN(C)CCCOC(=O)N[C@H]1CCN(C(=O)c2cc(C(F)(F)F)cc(C(F)(F)F)c2)[C@H](Cc2ccccc2)C1` [[(2R,4S)-2-Benzyl-1-(3,5-bis-trifluoromethyl-benzoyl)-piperidin-4-yl]-carbamic acid 3-dimethylamino-propyl ester] are within 1.5-fold of each other in IC50: 0.01 µM for the first, 0.011 µM for the second.

`Cc1cc(C)cc(C(=O)N2CC[C@H](NCc3ccccc3)C[C@H]2Cc2ccccc2)c1` [((2R,4S)-2-Benzyl-4-benzylamino-piperidin-1-yl)-(3,5-dimethyl-phenyl)-methanone] and `Cc1cc(C)cc(C(=O)N2CC[C@H](NCc3ccncc3)C[C@H]2Cc2ccccc2)c1` [{(2R,4S)-2-Benzyl-4-[(pyridin-4-ylmethyl)-amino]-piperidin-1-yl}-(3,5-dimethyl-phenyl)-methanone] are within 1.5-fold of each other in IC50: 0.22 µM for the first, 0.21 µM for the second.

Going from `O=C(c1cc(Cl)cc(Cl)c1)N1CC[C@H](N(Cc2ccnc3ccccc23)C(=O)C(F)(F)F)C[C@H]1Cc1ccccc1` [N-[(2R,4S)-2-Benzyl-1-(3,5-dichloro-benzoyl)-piperidin-4-yl]-2,2,2-trifluoro-N-quinolin-4-ylmethyl-acetamide] to `CN(Cc1ccnc2ccccc12)[C@H]1CCN(C(=O)c2cc(Cl)cc(Cl)c2)[C@H](Cc2ccccc2)C1` [[(2R,4S)-2-Benzyl-4-(methyl-quinolin-4-ylmethyl-amino)-piperidin-1-yl]-(3,5-dichloro-phenyl)-methanone], the IC50 falls from 0.6 µM to 0.39 µM (1.5-fold).

Compared with `COc1cc(CC(=O)N[C@H]2CCN(C(=O)c3cc(C)cc(C)c3)[C@H](Cc3ccccc3)C2)cc(OC)c1` [N-[(2R,4S)-2-Benzyl-1-(3,5-dimethyl-benzoyl)-piperidin-4-yl]-2-(3,5-dimethoxy-phenyl)-acetamide], `COc1cc(OC)cc(C(=O)N2CC[C@H](NCc3ccnc4ccccc34)C[C@H]2Cc2ccccc2)c1` [{(2R,4S)-2-Benzyl-4-[(quinolin-4-ylmethyl)-amino]-piperidin-1-yl}-(3,5-dimethoxy-phenyl)-methanone] is 7.7-fold higher in IC50: 0.012 µM for the first, 0.092 µM for the second.

Compared with `O=S(=O)(c1cc(C(F)(F)F)cc(C(F)(F)F)c1)N1CC[C@H](NCc2ccnc3ccccc23)C[C@H]1Cc1ccccc1` [[(2R,4S)-2-Benzyl-1-(3,5-bis-trifluoromethyl-benzenesulfonyl)-piperidin-4-yl]-quinolin-4-ylmethyl-amine], `O=C(c1cc(C(F)(F)F)cc(C(F)(F)F)c1)N1CC[C@H](NCc2ccnc3ccccc23)C[C@H]1Cc1ccccc1` [{(2R,4S)-2-Benzyl-4-[(quinolin-4-ylmethyl)-amino]-piperidin-1-yl}-(3,5-bis-trifluoromethyl-phenyl)-methanone] is lower in IC50: greater than 10 µM for the first, 0.017 µM for the second.

Compared with `FC(F)(F)c1cc(CN2CC[C@H](NCc3ccnc4ccccc34)C[C@H]2Cc2ccccc2)cc(C(F)(F)F)c1` [[(2R,4S)-2-Benzyl-1-(3,5-bis-trifluoromethyl-benzyl)-piperidin-4-yl]-quinolin-4-ylmethyl-amine], `O=C(c1cc(Br)cc(Br)c1)N1CC[C@H](NCc2ccnc3ccccc23)C[C@H]1Cc1ccccc1` [{(2R,4S)-2-Benzyl-4-[(quinolin-4-ylmethyl)-amino]-piperidin-1-yl}-(3,5-dibromo-phenyl)-methanone] is 37-fold lower in IC50: 0.88 µM for the first, 0.024 µM for the second.

First: Cc1cc(C)cc(C(=O)N2CC[C@H](NCc3cc4ccccc4cn3)C[C@H]2Cc2ccccc2)c1 [{(2R,4S)-2-Benzyl-4-[(isoquinolin-3-ylmethyl)-amino]-piperidin-1-yl}-(3,5-dimethyl-phenyl)-methanone]
Second: O=C(c1cc(O)cc(O)c1)N1CC[C@H](NCc2ccnc3ccccc23)C[C@H]1Cc1ccccc1 [{(2R,4S)-2-Benzyl-4-[(quinolin-4-ylmethyl)-amino]-piperidin-1-yl}-(3,5-dihydroxy-phenyl)-methanone]
The IC50 of the first is 27-fold lower: 0.019 µM for the first, 0.52 µM for the second. The first is the more potent here.

First: O=C(c1cc(Cl)cc(Cl)c1)N1CC[C@H](NCc2ccnc3ccccc23)C[C@H]1Cc1ccccc1 [{(2R,4S)-2-Benzyl-4-[(quinolin-4-ylmethyl)-amino]-piperidin-1-yl}-(3,5-dichloro-phenyl)-methanone]
Second: O=C(c1cccc(Cl)c1)N1CC[C@H](NCc2ccnc3ccccc23)C[C@H]1Cc1ccccc1 [{(2R,4S)-2-Benzyl-4-[(quinolin-4-ylmethyl)-amino]-piperidin-1-yl}-(3-chloro-phenyl)-methanone]
The IC50 of the first is 2.1-fold lower: 0.026 µM for the first, 0.054 µM for the second.

Work on `O=C(c1ccc2ccccc2c1)N1CC[C@H](NCc2ccnc3ccccc23)C[C@H]1Cc1ccccc1` [{(2R,4S)-2-Benzyl-4-[(quinolin-4-ylmethyl)-amino]-piperidin-1-yl}-naphthalen-2-yl-methanone] yielded an IC50 of 0.7 µM.

Assay: Inhibition of [3H]-SP radioligand binding to NK1 receptor from bovine retina

`Cc1cc(C)cc(C(=O)N2CC[C@H](NCc3cnc4ccccc4c3)C[C@H]2Cc2ccccc2)c1` [{(2R,4S)-2-Benzyl-4-[(quinolin-3-ylmethyl)-amino]-piperidin-1-yl}-(3,5-dimethyl-phenyl)-methanone] gave an IC50 of 0.03 µM.
